By inhibition is commonly meant the percentage by which the read-out fell short of the control.

One experiment relates to ACHN. As to the kind of experiment: Cytotoxicity against human ACHN cells assessed as cell viability at 10 uM after 72 hrs by sulforhodamine B assay relative to control. In kind it is functional. Conditions: read-out: Activity. (The SRB assay estimates cell density from bound dye.)
A further experiment concerns MDA-MB-231. Description: Cytotoxicity against human MDA-MB-231 cells assessed as cell viability at 10 uM after 72 hrs by sulforhodamine B assay relative to control. The settings on record: MDA-MB-231, 72 h, read-out: Activity. The class given is functional.
The nature of experiment [1]: Cytotoxicity against human HCT15 cells assessed as cell viability at 10 uM after 72 hrs by sulforhodamine B assay relative to control. Conditions: HCT-15, 72 h, read-out: Activity. In kind it is functional.
The nature of experiment [2]: Cytotoxicity against human NUGC3 cells assessed as cell viability at 10 uM after 72 hrs by sulforhodamine B assay relative to control. In kind it is functional. Conditions: NUGC-3, 72 h, read-out: Activity.
For experiment [3], the target named is Nuclear factor NF-kappa-B complex (Homo sapiens) (UniProt Q00653+P19838+Q04206). Description: Inhibition of NF-kappaB (unknown origin) transcriptional activity in LPS-induced mouse RAW264.7 cells at 30 uM after 1 hr by secreted alkaline phosphatase assay relative to control. In kind it is cell-based.
Nuclear factor NF-kappa-B complex (Homo sapiens), sequence (P19838 whole entry, looked up): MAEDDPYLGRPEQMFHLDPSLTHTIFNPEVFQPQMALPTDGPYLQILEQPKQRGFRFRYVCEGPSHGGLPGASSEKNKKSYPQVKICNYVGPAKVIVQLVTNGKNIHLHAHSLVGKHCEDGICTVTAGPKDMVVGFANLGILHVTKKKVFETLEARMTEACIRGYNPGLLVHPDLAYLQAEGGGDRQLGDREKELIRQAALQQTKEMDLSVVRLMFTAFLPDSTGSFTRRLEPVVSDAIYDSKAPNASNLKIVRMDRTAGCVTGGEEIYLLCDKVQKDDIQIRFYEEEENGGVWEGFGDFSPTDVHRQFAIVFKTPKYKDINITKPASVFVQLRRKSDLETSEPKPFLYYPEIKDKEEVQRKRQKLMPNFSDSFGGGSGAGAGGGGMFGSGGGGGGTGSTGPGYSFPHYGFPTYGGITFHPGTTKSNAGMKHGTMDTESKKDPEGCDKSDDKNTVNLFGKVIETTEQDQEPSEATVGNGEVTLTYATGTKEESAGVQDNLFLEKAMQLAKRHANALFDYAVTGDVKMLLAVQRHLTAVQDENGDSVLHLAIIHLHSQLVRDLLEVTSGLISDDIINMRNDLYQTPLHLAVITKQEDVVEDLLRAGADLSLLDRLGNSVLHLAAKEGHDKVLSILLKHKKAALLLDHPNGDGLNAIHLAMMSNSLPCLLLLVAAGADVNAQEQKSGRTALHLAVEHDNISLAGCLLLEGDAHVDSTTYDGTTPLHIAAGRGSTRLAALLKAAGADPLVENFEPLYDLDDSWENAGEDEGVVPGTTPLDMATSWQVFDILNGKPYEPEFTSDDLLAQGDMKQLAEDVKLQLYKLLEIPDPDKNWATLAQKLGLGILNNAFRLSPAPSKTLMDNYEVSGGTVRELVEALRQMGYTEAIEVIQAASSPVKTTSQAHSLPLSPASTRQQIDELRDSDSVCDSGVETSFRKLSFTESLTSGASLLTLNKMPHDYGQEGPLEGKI
Nuclear factor NF-kappa-B complex (Homo sapiens), sequence (Q00653 whole entry, looked up): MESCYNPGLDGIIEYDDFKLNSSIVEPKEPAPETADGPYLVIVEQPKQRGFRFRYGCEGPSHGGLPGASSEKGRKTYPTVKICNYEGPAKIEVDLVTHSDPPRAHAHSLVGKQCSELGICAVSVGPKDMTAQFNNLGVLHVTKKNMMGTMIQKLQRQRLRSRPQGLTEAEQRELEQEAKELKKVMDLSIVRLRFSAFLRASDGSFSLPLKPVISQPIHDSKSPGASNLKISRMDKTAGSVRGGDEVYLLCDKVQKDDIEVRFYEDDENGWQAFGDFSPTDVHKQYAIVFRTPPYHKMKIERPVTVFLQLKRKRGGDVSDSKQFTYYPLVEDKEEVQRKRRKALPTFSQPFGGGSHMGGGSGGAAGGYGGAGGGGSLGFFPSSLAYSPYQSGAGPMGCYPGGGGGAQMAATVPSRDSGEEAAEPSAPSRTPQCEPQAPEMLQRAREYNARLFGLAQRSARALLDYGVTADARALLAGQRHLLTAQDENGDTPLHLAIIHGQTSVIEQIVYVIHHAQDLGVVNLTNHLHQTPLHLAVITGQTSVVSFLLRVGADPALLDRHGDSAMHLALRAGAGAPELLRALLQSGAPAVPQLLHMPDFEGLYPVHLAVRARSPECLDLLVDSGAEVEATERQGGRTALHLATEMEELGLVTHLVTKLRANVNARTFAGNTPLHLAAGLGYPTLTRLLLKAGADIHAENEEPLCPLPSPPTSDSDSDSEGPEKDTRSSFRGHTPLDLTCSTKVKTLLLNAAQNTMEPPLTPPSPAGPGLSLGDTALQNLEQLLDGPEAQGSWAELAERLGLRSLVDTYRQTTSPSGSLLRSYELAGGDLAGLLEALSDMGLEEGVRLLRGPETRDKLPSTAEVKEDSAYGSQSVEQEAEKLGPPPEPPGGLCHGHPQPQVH
Nuclear factor NF-kappa-B complex (Homo sapiens), sequence (Q04206 whole entry, looked up): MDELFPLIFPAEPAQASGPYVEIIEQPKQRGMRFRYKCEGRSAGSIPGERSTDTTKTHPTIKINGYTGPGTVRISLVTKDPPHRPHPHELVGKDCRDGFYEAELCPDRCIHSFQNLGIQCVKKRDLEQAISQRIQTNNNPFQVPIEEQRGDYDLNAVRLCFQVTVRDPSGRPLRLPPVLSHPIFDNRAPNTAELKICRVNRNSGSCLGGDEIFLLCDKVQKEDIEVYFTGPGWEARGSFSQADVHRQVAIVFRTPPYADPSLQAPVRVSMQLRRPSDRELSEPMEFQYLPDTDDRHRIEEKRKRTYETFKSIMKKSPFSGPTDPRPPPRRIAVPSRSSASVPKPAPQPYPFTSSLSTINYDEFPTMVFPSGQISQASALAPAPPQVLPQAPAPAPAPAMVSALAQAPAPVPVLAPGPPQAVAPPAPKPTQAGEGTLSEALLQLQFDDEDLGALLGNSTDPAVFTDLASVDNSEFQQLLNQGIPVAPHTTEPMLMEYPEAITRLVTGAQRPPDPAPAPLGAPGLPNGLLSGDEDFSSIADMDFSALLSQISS
Experiment [4] in a line: Cytotoxicity against human PC3 cells assessed as cell viability at 10 uM after 72 hrs by sulforhodamine B assay relative to control. The class given is functional. Conditions: PC-3, 72 h, read-out: Activity.
Another experiment has as its system NCI-H23. Description: Cytotoxicity against human NCI-H23 cells assessed as cell viability at 10 uM after 72 hrs by sulforhodamine B assay relative to control. The class given is functional. The settings on record: NCI-H23, 72 h, read-out: Activity.

Consider `Cc1ccc(NC(=O)c2cc3ccccc3o2)cc1`, for which the viability at 10 µM with ACHN amounted to 96%; with MDA-MB-231, 105%; in experiment [1], 82%; in experiment [2], 95%; in experiment [4], 103%; in the experiment on NCI-H23, 104%. Besides, the inhibition in experiment [3] amounted to 34.5%.
In the case of `Cc1ccccc1NC(=O)C1Cc2ccccc2O1` (configuration not stated), the viability at 10 µM was determined as 108% with ACHN; 103% with MDA-MB-231; 88% in experiment [1]; 91% in experiment [2]; 87% in experiment [4]; 91% with NCI-H23. This compound also showed an inhibition in experiment [3] of 38%.
As to `O=C(Nc1ccccc1[N+](=O)[O-])C1Cc2ccccc2O1` (configuration not stated), the viability at 10 µM with ACHN is 108%; in the experiment with MDA-MB-231 it was 92%; in experiment [1], 94%; in experiment [2], 89%; in experiment [4] it was 89%; in the experiment on NCI-H23, 97%. In experiment [3], this compound displayed an inhibition of 28.5%.
As for `O=C(Nc1ccccc1Cl)c1cc2ccccc2o1`, the viability at 10 µM with ACHN came to 76%; in the experiment on MDA-MB-231 it was 76%; in experiment [1] it was 75%; in experiment [2] it was 86%; in experiment [4], 91%; in the experiment on NCI-H23, 91%. The compound also registered an inhibition in experiment [3] of 49.5%.
Consider `COc1cc(NC(=O)C2Cc3ccccc3O2)cc(OC)c1` (configuration not stated), for which the viability at 10 µM with ACHN was found to be 123%; in the experiment on MDA-MB-231, 78%; in experiment [1], 91%; in experiment [2], 96%; in experiment [4], 73%; with NCI-H23, 95%. The compound also gave an inhibition in experiment [3] of 24%.
For `Cc1ccccc1NC(=O)c1cc2ccccc2o1`, the viability at 10 µM is 106% in the experiment with ACHN; 101% with MDA-MB-231; 93% in experiment [1]; 98% in experiment [2]; 100% in experiment [4]; 89% in the experiment with NCI-H23. The compound further showed an inhibition in experiment [3] of 46%.
Turning to `COc1ccccc1NC(=O)c1cc2ccccc2o1`, the viability at 10 µM was 95% in the experiment with ACHN; 97% in the experiment on MDA-MB-231; 94% in experiment [1]; 99% in experiment [2]; 106% in experiment [4]; 98% in the experiment on NCI-H23. The inhibition in experiment [3] amounted to 41%.
`O=C(Nc1ccccc1O)c1cc2ccccc2o1`: the viability at 10 µM in the experiment with ACHN stood at 84%; with MDA-MB-231, 85%; in experiment [1] it was 58%; in experiment [2], 84%; in experiment [4], 68%; in the experiment with NCI-H23, 86%. Also, in experiment [3], the inhibition came to 23%.
`O=C(Nc1ccccc1[N+](=O)[O-])c1cc2ccccc2o1`: the viability at 10 µM in the experiment on ACHN was determined as 91%; in the experiment on MDA-MB-231, 102%; in experiment [1], 73%; in experiment [2], 95%; in experiment [4], 92%; with NCI-H23, 95%. Also, the inhibition in experiment [3] is 25.5%.
As to `O=C(Nc1ccccc1)C1Cc2ccccc2O1` (configuration not stated), the viability at 10 µM with ACHN is 95%; with MDA-MB-231, 101%; in experiment [1], 88%; in experiment [2], 87%; in experiment [4], 92%; in the experiment with NCI-H23, 93%. The compound further displayed an inhibition in experiment [3] of 10%.
As to `Cc1cccc(NC(=O)c2cc3ccccc3o2)c1`, the viability at 10 µM is 93% in the experiment on ACHN; 106% in the experiment with MDA-MB-231; 87% in experiment [1]; 99% in experiment [2]; 94% in experiment [4]; 101% in the experiment with NCI-H23. Besides, the inhibition in experiment [3] was found to be 38%.
In the case of `O=C(Nc1cc(C(F)(F)F)ccc1C(F)(F)F)C1Cc2ccccc2O1` (configuration not stated), the viability at 10 µM in the experiment on ACHN was 105%; in the experiment on MDA-MB-231, 98%; in experiment [1], 81%; in experiment [2], 99%; in experiment [4] it was 88%; in the experiment with NCI-H23, 87%. In experiment [3], the inhibition was determined as 34%.
Take `O=C(Nc1cccc(Cl)c1)c1cc2ccccc2o1`: the viability at 10 µM in the experiment on ACHN amounted to 69%; in the experiment on MDA-MB-231, 80%; in experiment [1], 52%; in experiment [2], 83%; in experiment [4], 95%; in the experiment on NCI-H23, 61%. In experiment [3], this compound registered an inhibition of 37%.
Consider `O=C(Nc1cccc(C(F)(F)F)c1)C1Cc2ccccc2O1` (configuration not stated), for which the viability at 10 µM stood at 134% with ACHN; 102% in the experiment with MDA-MB-231; 95% in experiment [1]; 93% in experiment [2]; 69% in experiment [4]; 100% with NCI-H23. In experiment [3], the inhibition came out at 30.5%.
`O=C(Nc1ccccc1)c1cc2ccccc2o1`: the viability at 10 µM in the experiment with ACHN stood at 89%; in the experiment on MDA-MB-231 it was 94%; in experiment [1], 75%; in experiment [2] it was 97%; in experiment [4] it was 83%; in the experiment on NCI-H23 it was 98%. In experiment [3], this compound showed an inhibition of 44%.
In the case of `O=C(Nc1cccc(Cl)c1)C1Cc2ccccc2O1` (configuration not stated), the viability at 10 µM in the experiment on ACHN was 134%; in the experiment with MDA-MB-231, 80%; in experiment [1] it was 97%; in experiment [2], 101%; in experiment [4] it was 91%; with NCI-H23, 101%. The inhibition in experiment [3] is 43.5%.
Consider `Cc1ccc(C)c(NC(=O)c2cc3ccccc3o2)c1`, for which the viability at 10 µM in the experiment with ACHN is 82%; with MDA-MB-231, 102%; in experiment [1], 94%; in experiment [2] it was 88%; in experiment [4], 98%; in the experiment with NCI-H23, 94%. Further, the inhibition in experiment [3] turned out to be 58%.
`O=C(Nc1ccc(Cl)cc1)c1cc2ccccc2o1`: the viability at 10 µM in the experiment on ACHN was 89%; with MDA-MB-231 it was 96%; in experiment [1], 68%; in experiment [2] it was 91%; in experiment [4], 84%; in the experiment with NCI-H23 it was 92%. In experiment [3], the inhibition worked out at 43%.
On to `O=C(Nc1cc(Cl)cc(Cl)c1)C1Cc2ccccc2O1` (configuration not stated), for which the viability at 10 µM in the experiment on ACHN came out at 89%; with MDA-MB-231, 89%; in experiment [1] it was 98%; in experiment [2], 114%; in experiment [4], 89%; with NCI-H23, 99%. Also, in experiment [3], the inhibition turned out to be 75%.
For `O=C(Nc1cc(C(F)(F)F)cc(C(F)(F)F)c1)C1Cc2ccccc2O1` (configuration not stated), the viability at 10 µM stood at 94% in the experiment with ACHN; 105% with MDA-MB-231; 92% in experiment [1]; 105% in experiment [2]; 96% in experiment [4]; 92% in the experiment with NCI-H23. This compound also gave an inhibition in experiment [3] of 25%.
On to `Cc1ccc(NC(=O)C2Cc3ccccc3O2)cc1C` (configuration not stated), for which the viability at 10 µM in the experiment on ACHN amounted to 137%; with MDA-MB-231 it was 86%; in experiment [1], 97%; in experiment [2] it was 99%; in experiment [4], 94%; in the experiment on NCI-H23, 92%. Also, the inhibition in experiment [3] worked out at 44.5%.
Turning to `O=C(Nc1cc(Cl)ccc1Cl)c1cc2ccccc2o1`, the viability at 10 µM came to 96% in the experiment with ACHN; 101% in the experiment on MDA-MB-231; 81% in experiment [1]; 89% in experiment [2]; 97% in experiment [4]; 96% with NCI-H23. Further, in experiment [3], the inhibition was found to be 36.5%.
For the compound `O=C(Nc1ccc(Cl)cc1)C1Cc2ccccc2O1` (configuration not stated), the viability at 10 µM in the experiment on ACHN was 143%; with MDA-MB-231 it was 100%; in experiment [1], 55%; in experiment [2] it was 100%; in experiment [4], 71%; with NCI-H23 it was 89%. In experiment [3], this compound registered an inhibition of 41.5%.
In the case of `Cc1cc(C)cc(NC(=O)C2Cc3ccccc3O2)c1` (configuration not stated), the viability at 10 µM with ACHN is 136%; in the experiment with MDA-MB-231, 97%; in experiment [1] it was 91%; in experiment [2] it was 95%; in experiment [4] it was 94%; in the experiment with NCI-H23, 97%. Moreover, in experiment [3], the inhibition is 34%.
Turning to `COc1cc(NC(=O)c2cc3ccccc3o2)cc(OC)c1`, the viability at 10 µM in the experiment with ACHN is 102%; in the experiment with MDA-MB-231 it was 106%; in experiment [1], 95%; in experiment [2], 90%; in experiment [4], 92%; with NCI-H23, 102%. The inhibition in experiment [3] was found to be 63%.
With `O=C(Nc1ccc(C(F)(F)F)cc1)C1Cc2ccccc2O1` (configuration not stated), the viability at 10 µM in the experiment with ACHN is 124%; in the experiment on MDA-MB-231 it was 82%; in experiment [1], 96%; in experiment [2], 99%; in experiment [4] it was 60%; in the experiment with NCI-H23, 97%. In experiment [3], this compound showed an inhibition of 41%.

These data come from ChEMBL document CHEMBL3425509, “Design, synthesis, and biological evaluation of benzofuran- and 2,3-dihydrobenzofuran-2-carboxylic acid N-(substituted)phenylamide derivatives as anticancer agents and inhibitors of NF-κB” (Bioorg Med Chem Lett, 2015).
